Data published in patent US20020062490A1, “Hypertension” (priority 2000, published 2002).
Values joined by “and” are separate entries in the source; they are usually repeats but may differ in a detail not shown here. Equal entries are not always repeated.

Experiments:
[1] = test system: aortic VSM cells; assay: MAPK (ERK1/2) activity after βAR stimulation in aorta VSM cells; type: cell-based, mice; details: 10^−5M isoproterenol, 5 minutes
Method: MAPK Activity: To study MAPK activity, cells were stimulated with isoproterenol at the described concentration for 5 minutes. Cells were then harvested and homogenized in ice-cold RIPA buffer with 1 mM sodium orthovanadate (Iaccarino et al, Proc. Natl. Acad. Sci. USA 96:3945-3950 (1999b)). MAPK activity as assessed by phosphorylated protein levels was performed by activity assays as previously described (Iaccarino et al, Proc. Natl. Acad. Sci. USA 96:3945-3950 (1999b)). Protein immunoblotting for the activated phosphorylated forms of ERK1/2 and JNK1/3 (New England Biolabs) was normalized to total MAPK levels using antibodies specific to total ERK1/2 and JNK1 (Santa Cruz Biotechnologies, California).
As a second assay to measure βAR mediated signaling in VSM cells from GRK2 transgenic and NLC mice, we investigated MAPK activity after βAR stimulation. Two MAPKs were studied, extracellular-regulated kinase (ERK1/2 or p42/p44 MAPKs) and c-jun kinase (JNK). FIG. 7C is a representative autoradiograph of the ability of immunoprecipitated ERK1/2 or JNK1/3 to phosphorylates their in vitro substrates myelin basic protein (MBP) or GST-c-jun, respectively, after the addition of different doses of isoproterenol to aortic VSM cells from NLC and SM22α-GRK2-25 mice. […] This was also the case for the activity of JNK1/3 and its ability to phosphorylate GST-c-jun (FIG. 7C). […]

[2] = Blood pressure responses in anesthetized mice to infused GPCR agonists; type: in vivo; details: for decrease from resting MAP: 0.156 μg/kg isoproterenol, n=3; for change from resting diastolic pressure: 0.625 μg/kg isoproterenol; for diastolic pressure response: 10 μg/kg isoproterenol; for MAP response (increase over resting MAP): 8 μg/kg phenylephrine; for increase over resting MAP: 1 μg/kg angiotensin II
Method: In order to begin to understand the mechanisms involved in the GRK2 overexpression-induced hypertension and the receptors that are desensitized, blood pressure responses were measured in anesthetized mice following angiotensin II (FIG. 5A), phenylephrine (FIG. 5B) or isoproterenol (FIG. 5C) infusion. The response to 1 μg/kg angiotensin II was attenuated (NLC 91+12%, n=9 versus BK25 43+8% increase over resting MAP, n=4, p=0.02), as were responses to 8 μg/kg phenylephrine (NLC: 44±11% versus 4±5%, n=4, p=0.04). MAP responses to isoproterenol were not different in GRK2 overexpressing mice as compared with NLC. However, isoproterenol has a significant effect on heart rate that could affect MAP. Therefore, diastolic pressure was examined as a rough estimate of peripheral resistance.
In vivo Physiology: Mice were anesthetized with ketamine (100 mg/kg body weight) and xylazine (5 mg/kg body weight). Subsequently, a flexible plastic catheter (flame-stretched PE50 tubing) was placed in the left carotid artery to monitor arterial pressure and tunneled subcutaneously to exit at the nape of the neck. The catheter was then flushed with 100 μL of heparinized phosphate-buffered saline (PBS) (30 U/mL), sealed and attached to the skin between the scapulae. Twenty-four hours later, blood pressure measurements are recorded from awake, unrestrained mice. Intra-arterial blood pressure is recorded continuously through the carotid catheter using PowerLab (ADInstruments, Mountainview, Calif.) data acquisition and software. In both anesthetized and awake animals, systolic (SBP) and diastolic blood pressure (DBP), and heart rate were measured. Mean arterial pressure (MAP) was calculated as DBP+⅓(SBP- DBP). The recordings from animals in each experimental group were then integrated and averaged. To analyze acute blood pressure responses, a second catheter was placed in the jugular vein to infuse agonists. Immediately following an equilibration period, mice received a bolus injection at 2-5 min intervals.

[3] = test system: aortic VSM cells; assay: Intracellular cAMP accumulation (adenylyl cyclase activity) in cultured aortic VSM cells; type: cell-based; details: aortic VSM cells from SM22α-GRK2-25 mice, compared with NLC cells
Method: Cell Culture: Primary cultures of VSM from thoracic aortas and vena cava were obtained and cultured as described (Chen et al, J. Biol. Chem. 270:30980-30988 (1995)). To determine adenylyl cyclase activity, cultured cells were grown to four days post-confluence. Cells were then labeled overnight in 3.0 μCi/mL [^3H]adenine (DuPont/NEN) in medium 199 and then preincubated in medium 199 with 10 mM Hepes and 1 mM 3-isobutyl-1-methylxanthine (IBMX) for 30 min. Cells were then stimulated with the appropriate concentration of isoproterenol or […] for 15 minutes. Following incubation, cAMP was determined by anion exchange chromatography and a percent incorporation of the total [^3H] uptake was calculated. To determine if enhanced expression and activity of GRK2 seen in cultured VSM cells from SM22α-GRK2 mice could exert an effect on signaling, intracellular cAMP accumulation in cultured aortic VSM cells in response to the βAR agonist isoproterenol was examined.

[4] = test system: thoracic aorta ring segments; assay: Responses of isolated thoracic aorta ring segments to GPCR agonists; parameters: species or system mice
Method: In Vitro Physiology: Aorta were dissected and cut into 2.5 mm rings. Rings were then placed in a 37° C. chamber (Kent Scientific) containing Krebs-Hensileit buffer and bubbled with 95% O2/5% CO2. Two stainless steel wires were placed through each ring and one wire is attached to a fixed end. The other was attached to a force transducer and contraction is measured by force displacement (PowerLab, ADInstruments, Mountainview, Calif.). Responses to various agonists were tested in the presence and absence (mechanically scraped using a thin wire or chemical inhibition of nitric oxide synthase using 100 μM L-NAME) of endothelial cells. For isoproterenol responses, pretension was established at 60% of the maximum phenylephrine response (3×10^−7M PE).
Pharmacology: To analyze the effect of VSM GRK2 overexpression independent of autonomic influences on the peripheral vasculature, responses of isolated thoracic aorta ring segments to the GPCR agonists isoproterenol (βAR) and phenylephrine ([…]) were examined. Endothelial cell presence was first verified by relaxation responses to 10^−5M acetylcholine. […] Accordingly, pretension for the βAR studies was established using 3×10^−7M phenylephrine, which corresponded to 60% maximum phenylephrine stimulation in both NLC and transgenic mice. […]

CC(C)NCC(O)c1ccc(O)c(O)c1 (stereo not shown) [isoproterenol]
induction of phosphorylation status of ERK1/2 ([1]; NLC VSM cells): robust increase | induction of phosphorylation status of ERK1/2 (activation) ([1]; SM22α-GRK2-25 VSM cells): virtually abolished | decrease from resting MAP ([2]; anesthetized NLC mice): −30±2.8 mmHg | decrease from resting MAP ([2]; anesthetized SM22α-GRK2 mice): −4.7±3.2 mmHg | change from resting diastolic pressure ([2]; anesthetized BK25 mice, n=4): −11±3% | change from resting diastolic pressure ([2]; anesthetized NLC mice, n=9): −39±8% | diastolic pressure response ([2]; anesthetized BK25 mice, n=4): −11±3% | diastolic pressure response ([2]; anesthetized WT mice, n=9): −39±8% | MAP responses, GRK2 overexpressing mice compared with NLC ([2]; anesthetized mice, cumulative doses of isoproterenol): not different | cAMP generation [3]: minimal increase

CNC[C@H](O)c1cccc(O)c1 [phenylephrine]
fraction of maximum phenylephrine stimulation (pretension) ([4]; 3×10^−7M phenylephrine, aorta rings of both NLC and transgenic mice): 60% | constriction of aorta rings, NLC compared with SM22α-GRK2-25 mice ([4]; cumulative dose response): similar | MAP response (increase over resting MAP) ([2]; anesthetized GRK2 overexpressing (BK25) mice, n=4): 4±5% | MAP response (increase over resting MAP) ([2]; anesthetized NLC (WT) mice): 44±11%

angiotensin II [GPCR agonist infused to raise blood pressure]
increase over resting MAP ([2]; anesthetized BK25 (GRK2 overexpressing) mice, n=4): 43+8% and 43±8% | increase over resting MAP ([2]; anesthetized NLC (WT) mice, n=9): 91+12% and 91±12%
